Measured values published in article PMC9399118, “Pentadecanoylcarnitine is a newly discovered endocannabinoid with pleiotropic activities relevant to supporting physical and mental health” (Scientific Reports, 2022).

Assays:
[1] = molecular target: T1, cannabinoid receptor 1 (CB1) (Homo sapiens, UniProt P21554); assay: cell-based GPCR cAMP modulation assay, […] doses; conditions: read-out: half-maximal effective concentration
T1 construct: gene CNR1; full-length receptor expected in commercial panel cell line (Eurofins/DiscoverX SafetyScan47)

[2] = molecular target: T2, serotonin 1A receptor (5-HT1A) (Homo sapiens, UniProt P08908); assay: cell-based SafetyScan47 dose-response assay, […] doses; conditions: read-out: half-maximal effective concentration
T2 construct: gene HTR1A; full-length receptor expected in commercial panel cell line (Eurofins/DiscoverX SafetyScan47)

[3] = molecular target: T3, histamine H1 receptor (H1R) (Homo sapiens, UniProt P35367); assay: as above; conditions: read-out: half-maximal inhibitory concentration
T3 construct: gene HRH1; full-length receptor expected in commercial panel cell line (Eurofins/DiscoverX SafetyScan47)

[4] = molecular target: T4, histamine H2 receptor (H2R) (Homo sapiens, UniProt P25021); assay: as above; conditions: read-out: half-maximal inhibitory concentration
T4 construct: gene HRH2; full-length receptor expected in commercial panel cell line (Eurofins/DiscoverX SafetyScan47)

[5] = molecular target: T5, serotonin 1B receptor (5-HT1B) (Homo sapiens, UniProt P28222); assay: as above; conditions: read-out: half-maximal effective concentration
T5 construct: gene HTR1B; full-length receptor expected in commercial panel cell line (Eurofins/DiscoverX SafetyScan47)

[6] = molecular target: T6, cannabinoid receptor 2 (CB2) (Homo sapiens, UniProt P34972); assay: cell-based GPCR cAMP modulation assay, […] doses; conditions: read-out: half-maximal effective concentration
T6 construct: gene CNR2; full-length receptor expected in commercial panel cell line (Eurofins/DiscoverX SafetyScan47)
T6 sequence (P34972 whole entry): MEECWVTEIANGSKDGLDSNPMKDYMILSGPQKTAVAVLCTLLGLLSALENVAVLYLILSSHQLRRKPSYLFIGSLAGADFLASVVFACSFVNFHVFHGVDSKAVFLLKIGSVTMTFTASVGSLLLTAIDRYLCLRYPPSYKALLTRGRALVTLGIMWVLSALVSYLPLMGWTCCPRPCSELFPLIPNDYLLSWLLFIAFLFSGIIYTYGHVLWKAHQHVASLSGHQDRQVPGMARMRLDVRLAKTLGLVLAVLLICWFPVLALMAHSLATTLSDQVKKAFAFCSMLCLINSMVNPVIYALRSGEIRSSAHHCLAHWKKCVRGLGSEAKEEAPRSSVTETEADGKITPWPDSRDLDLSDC

T3 sequence (P35367 whole entry): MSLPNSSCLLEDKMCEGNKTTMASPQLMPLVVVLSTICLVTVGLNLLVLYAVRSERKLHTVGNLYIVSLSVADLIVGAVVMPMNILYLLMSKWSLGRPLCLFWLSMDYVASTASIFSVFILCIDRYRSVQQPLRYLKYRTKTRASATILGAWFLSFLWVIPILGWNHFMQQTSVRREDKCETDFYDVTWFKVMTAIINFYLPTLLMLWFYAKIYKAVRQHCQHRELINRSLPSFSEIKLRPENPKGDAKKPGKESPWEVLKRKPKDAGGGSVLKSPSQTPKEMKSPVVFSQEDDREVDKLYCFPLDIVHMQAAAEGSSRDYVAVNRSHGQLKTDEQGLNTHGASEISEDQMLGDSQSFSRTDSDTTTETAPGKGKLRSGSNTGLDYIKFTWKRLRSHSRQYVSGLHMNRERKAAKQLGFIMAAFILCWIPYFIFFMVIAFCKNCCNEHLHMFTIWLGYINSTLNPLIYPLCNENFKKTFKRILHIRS
T4 sequence (P25021 whole entry): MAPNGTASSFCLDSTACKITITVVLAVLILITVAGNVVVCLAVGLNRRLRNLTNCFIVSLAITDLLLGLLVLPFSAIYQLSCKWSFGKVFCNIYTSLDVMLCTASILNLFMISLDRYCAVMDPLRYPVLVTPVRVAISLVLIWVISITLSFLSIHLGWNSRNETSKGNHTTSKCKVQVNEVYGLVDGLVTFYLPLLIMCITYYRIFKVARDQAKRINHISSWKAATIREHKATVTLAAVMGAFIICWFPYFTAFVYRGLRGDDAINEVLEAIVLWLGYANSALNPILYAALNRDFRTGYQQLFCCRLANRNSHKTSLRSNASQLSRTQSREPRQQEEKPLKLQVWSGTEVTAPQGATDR
T2 sequence (P08908 whole entry): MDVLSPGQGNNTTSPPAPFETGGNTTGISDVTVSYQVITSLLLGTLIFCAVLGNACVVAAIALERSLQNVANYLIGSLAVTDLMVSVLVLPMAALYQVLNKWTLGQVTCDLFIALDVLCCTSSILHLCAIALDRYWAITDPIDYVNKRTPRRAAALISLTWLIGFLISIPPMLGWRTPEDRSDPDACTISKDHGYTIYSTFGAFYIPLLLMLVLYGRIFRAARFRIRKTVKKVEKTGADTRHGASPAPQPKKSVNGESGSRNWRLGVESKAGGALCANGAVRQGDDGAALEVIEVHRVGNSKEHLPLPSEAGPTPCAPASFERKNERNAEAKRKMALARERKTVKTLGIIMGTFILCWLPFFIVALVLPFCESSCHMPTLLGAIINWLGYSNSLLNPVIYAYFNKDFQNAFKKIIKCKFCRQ
T5 sequence (P28222 whole entry): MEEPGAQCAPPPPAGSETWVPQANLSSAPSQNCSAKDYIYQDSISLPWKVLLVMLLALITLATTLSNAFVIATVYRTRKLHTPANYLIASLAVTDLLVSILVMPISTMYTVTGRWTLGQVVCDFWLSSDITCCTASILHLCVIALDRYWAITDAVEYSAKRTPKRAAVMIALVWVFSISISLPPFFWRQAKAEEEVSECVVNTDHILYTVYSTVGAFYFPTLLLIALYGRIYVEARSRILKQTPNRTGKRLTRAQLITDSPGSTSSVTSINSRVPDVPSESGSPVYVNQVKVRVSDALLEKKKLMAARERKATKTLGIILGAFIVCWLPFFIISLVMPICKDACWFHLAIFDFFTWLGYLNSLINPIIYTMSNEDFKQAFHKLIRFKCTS
T1 sequence (P21554 whole entry): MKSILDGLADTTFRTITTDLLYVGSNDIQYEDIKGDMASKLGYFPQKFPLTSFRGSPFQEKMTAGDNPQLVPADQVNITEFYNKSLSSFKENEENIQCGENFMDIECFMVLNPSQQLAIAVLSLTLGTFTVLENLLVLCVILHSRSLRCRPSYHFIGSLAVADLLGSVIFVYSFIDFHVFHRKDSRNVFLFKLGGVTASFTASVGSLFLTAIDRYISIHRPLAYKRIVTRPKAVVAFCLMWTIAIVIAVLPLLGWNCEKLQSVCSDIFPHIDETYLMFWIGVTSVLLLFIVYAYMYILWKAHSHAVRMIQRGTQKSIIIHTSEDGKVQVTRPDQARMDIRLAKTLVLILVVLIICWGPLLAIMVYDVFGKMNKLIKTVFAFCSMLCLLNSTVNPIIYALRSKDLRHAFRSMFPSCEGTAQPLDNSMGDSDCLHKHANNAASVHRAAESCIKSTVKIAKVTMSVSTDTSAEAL

CCCCCCCCCCCCCCC(=O)O[C@H](CC(=O)[O-])C[N+](C)(C)C [pentadecanoylcarnitine]
EC50 [1]: 3.7 µM
EC50 [2]: 9.6 µM
IC50 [3]: 10.9 µM
IC50 [4]: 6.1 µM
EC50 [5]: 9.3 µM
EC50 [6]: 3.2 µM
